The text below walks through data of US20250295606A1, “BIOSOLUBLE POLYMER OR PARTICLE FOR DELIVERY OF AN ACTIVE AGENT AND A METHOD FOR THE PRODUCTION” (Tijani Holding B.V., priority 2021, published 2025).

In data set [1] the test system is pig. The source says: For sublingual (s.l.) treatment it is necessary to anesthetize the animals as to allow the application of the insulin complexes onto the sublingual mucosa, but long-term anesthesia is undesirable as it may affect insulin/glucose metabolism.
Data set [2] relates to diabetic Göttingen minipigs. As to the kind of experiment: Sublingual SLIM particles vs s.c. insulin, blood glucose in diabetic Göttingen minipigs. To be noted: Minipig 2, different days; SLIM-AF5 15 IU sublingual, RHI 10 IU subcutaneous; 2H30, after first 10 min. Format: in vivo. From the text:
Testing the sublingual application of SLIM particles loaded with insulin in normoglycemic and STZ diabetic […] in a chronic in vivo study.
The purpose of this chronic, large animal in vivo study was to test the effective penetration of insulin containing particles through the sublingual mucosa, compare the effect with the subcutaneously applied human recombinant, measure the blood glucose changes and analyses the plasma insulin levels. Domestic pigs were also included in the study to compare the glucose lowering effect of insulin-loaded particles in the Göttingen minipigs and domestic pigs. […]
In this study, we first recorded the effect of s.c. application of human recombinant insulin as reference compounds and s.c. and s.l. applications of micro-compounds. […] The glucose levels of the pigs were followed and monitored for at least 3 days. […]
Corresponding to Example 20, the efficacy of SLIM particles was compared to subcutaneous injection of commercial recombinant human insulin in the same diabetic Göttingen minipig (Minipig 2) on different days. First day the animal received SLIM-AF5 (AF, 15 IU) particles sublingually and the second day was administered Recombinant Human Insulin (RHI, 10 IU) subcutaneously and the BG levels were monitored for 2H30 and compared (FIG. 22).

Data set [3] is described as follows: Plasma insulin level in diabetic Göttingen minipigs. Format: in vivo. As to conditions: diabetic Göttingen minipig, subcutaneous injection. From the text:
The purpose of this chronic, large animal in vivo study was to test the effective penetration of insulin containing particles through the sublingual mucosa, compare the effect with the subcutaneously applied human recombinant, measure the blood glucose changes and analyses the plasma insulin levels. Domestic pigs were also included in the study to compare the glucose lowering effect of insulin-loaded particles in the Göttingen minipigs and domestic pigs. The test compounds were applied s.l. and s.c. to the pigs being under the anesthetic propofol (Amnesia).
On the first day of acclimatization a central venous catheter was installed (Certofix®Mono B-Braun V430) for each domestic pig and Göttingen minipig. The pigs were fasted overnight before the day of operation, but supplied with water ad libitum. The animals were pre-anesthetized intramuscularly with Calypsol/Xilazine (2/1.8 mL, based on body weight) injections in the stalls to avoid stress, and were transported to the operating room. The anesthesia was maintained using isoflurane inhalation narcosis (2-2.5%) with oxygen. […]. The venous catheters were introduced by aseptic technique into the left external jugular vein. The end of the catheter was pulled subcutaneously to the back part of the head between the ears, and fixed by sutures, in two layers. […]

For `CC(C)c1cccc(C(C)C)c1O` [Propofol], in data set [1] (5 mg/kg, 20 mg/mL i.v.), the “time until the jaw was relaxed” value was determined as 60 s and the “time until the pig was laying down” value was determined as 30 s. For the same compound, the “blood glucose measurements under anesthesia” value in data set [1] (20 minutes before, then 5, 10, 15 and 30 minutes after anesthesia) is recorded as “in the normal range”.
Regarding “recombinant human insulin: commercial recombinant human insulin, subcutaneous reference”, the BG level course entry in data set [2] is “continue to decline linearly with the time but with a slightly different speed and slop”. For the same compound, the “maxima of plasma insulin” value is recorded as “only one insulin maximum in plasma” in data set [3] (2 IU) and “only one maximum peak of plasma insulin” in data set [3] (10 IU).
